Laboratory results as given in ChEMBL document CHEMBL1201862, “PubChem BioAssay data set” (2004).
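Exposure lasted 48 hours, with cells grown in 96-well plates and compounds tested at five concentrations. GI50: concentration for 50% inhibition of growth.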 Activity calls are given as the source filed them. Cut-off read from the data, not from the text of the source: active = GI50 up to about 1.1 µM and inactive = higher.

Key:
Assay in all cases: inhibition of tumour cell growth, NCI panel, 48 h
786-0 = system: 786-0
CAKI-1 = system: CAKI-1
COLO 205 = system: COLO 205
HL-60 = system: HL-60
HOP-62 = system: HOP-62
K562 = system: K562
LOX IMVI = system: LOX IMVI
M14 = system: M14
MOLT-4 = system: MOLT-4
Malme-3M = system: Malme-3M
PC-3 = system: PC-3
SF-539 = system: SF-539
SK-MEL-28 = system: SK-MEL-28
SN12C = system: SN12C
SNB-75 = system: SNB-75
SW-620 = system: SW-620
TK-10 = system: TK-10
UACC-257 = system: UACC-257
UACC-62 = system: UACC-62
RXF 393 = system: RXF 393

Measured: GI50

COc1ccc(/C=C2\OC(=O)C(Cl)=C2c2ccc(OC)cc2)cc1
inactive: 786-0 45.6 µM | CAKI-1 > 100 µM | COLO 205 > 100 µM | HL-60 > 100 µM | HOP-62 28 µM | K562 > 100 µM | LOX IMVI > 100 µM | M14 > 100 µM | MOLT-4 > 100 µM | Malme-3M > 100 µM | PC-3 63 µM | SF-539 > 100 µM | SK-MEL-28 > 100 µM | SN12C > 100 µM | SNB-75 > 100 µM | SW-620 > 100 µM | TK-10 84.5 µM | UACC-257 > 100 µM | UACC-62 > 100 µM

Cc1nn(C(=O)Cc2ccccc2)c2c1C(c1ccccc1[N+](=O)[O-])SC(=N)N2 (centres undefined)
inactive: 786-0 > 100 µM | CAKI-1 > 100 µM | COLO 205 > 100 µM | HL-60 > 100 µM | HOP-62 > 100 µM | K562 > 100 µM | LOX IMVI > 100 µM | M14 > 100 µM | MOLT-4 > 100 µM | Malme-3M > 100 µM | PC-3 > 100 µM | SF-539 > 100 µM | SK-MEL-28 > 100 µM | SN12C > 100 µM | SNB-75 83.4 µM | SW-620 > 100 µM | TK-10 > 100 µM | UACC-257 > 100 µM | UACC-62 > 100 µM

O=S(=O)(NC(c1ccccc1)(c1cc2ccccc2[nH]1)c1cc2ccccc2n1S(=O)(=O)c1ccccc1)c1ccccc1 (centres undefined)
inactive: 786-0 > 100 µM | CAKI-1 > 100 µM | COLO 205 > 100 µM | HL-60 > 100 µM | HOP-62 > 100 µM | K562 > 100 µM | LOX IMVI > 100 µM | M14 62.2 µM | MOLT-4 > 100 µM | Malme-3M 59.2 µM | PC-3 > 100 µM | SK-MEL-28 > 100 µM | SNB-75 > 100 µM | SW-620 > 100 µM | TK-10 > 100 µM | UACC-257 > 100 µM | UACC-62 > 100 µM

O=C1c2ccccc2C(=O)N1CCc1nc(-c2ccccc2)c[nH]1
inactive: 786-0 > 100 µM | CAKI-1 > 100 µM | COLO 205 > 100 µM | HL-60 > 100 µM | HOP-62 > 100 µM | K562 > 100 µM | M14 > 100 µM | MOLT-4 > 100 µM | Malme-3M 24.8 µM | PC-3 > 100 µM | SF-539 > 100 µM | SK-MEL-28 > 100 µM | SN12C > 100 µM | SNB-75 > 100 µM | SW-620 > 100 µM | TK-10 > 100 µM | UACC-257 > 100 µM | UACC-62 > 100 µM

CC(=O)N(C)CCc1c[nH]c2ccccc12
inactive: 786-0 > 100 µM | CAKI-1 > 100 µM | COLO 205 > 100 µM | HL-60 > 100 µM | HOP-62 > 100 µM | K562 > 100 µM | LOX IMVI > 100 µM | M14 > 100 µM | MOLT-4 > 100 µM | Malme-3M > 100 µM | PC-3 > 100 µM | SF-539 > 100 µM | SK-MEL-28 > 100 µM | SN12C > 100 µM | SNB-75 > 100 µM | SW-620 > 100 µM | TK-10 > 100 µM | UACC-257 > 100 µM | UACC-62 > 100 µM

C=CCOCn1ccc(N)nc1=O
inactive: 786-0 > 100 µM | CAKI-1 > 100 µM | COLO 205 > 100 µM | HL-60 > 100 µM | HOP-62 > 100 µM | K562 > 100 µM | LOX IMVI > 100 µM | M14 > 100 µM | MOLT-4 > 100 µM | Malme-3M > 100 µM | PC-3 > 100 µM | SF-539 > 100 µM | SK-MEL-28 > 100 µM | SN12C > 100 µM | SNB-75 > 100 µM | SW-620 > 100 µM | TK-10 > 100 µM | UACC-257 > 100 µM | UACC-62 > 100 µM

O=c1c(C(c2ccc(O)cc2)c2c(O)oc3ccccc3c2=O)c(O)oc2ccccc12
inactive: 786-0 58.2 µM | CAKI-1 85.9 µM | COLO 205 69.8 µM | HOP-62 96.8 µM | LOX IMVI 45.2 µM | Malme-3M 86.9 µM | PC-3 > 100 µM | SK-MEL-28 55.5 µM | SN12C 56.8 µM | SNB-75 30.9 µM | SW-620 44.5 µM | TK-10 > 100 µM | UACC-257 > 100 µM | UACC-62 79.1 µM

Cc1nc(Nc2ccccc2)sc1C(=O)NNc1ccc([N+](=O)[O-])cc1[N+](=O)[O-]
inactive: 786-0 27.9 µM | CAKI-1 31.5 µM | COLO 205 30.3 µM | HL-60 13.9 µM | HOP-62 41.9 µM | K562 12 µM | LOX IMVI 21.4 µM | M14 38.9 µM | MOLT-4 24.7 µM | Malme-3M 43.9 µM | RXF 393 35.2 µM | SF-539 32.7 µM | SK-MEL-28 > 100 µM | SN12C 49 µM | SNB-75 22.7 µM | SW-620 39.9 µM | TK-10 52.5 µM | UACC-257 43.5 µM | UACC-62 5.94 µM
